Where a name gives a salt, the structure may show the parent alone.
What follows are compounds tested against T1, human CGT (ceramide galactosyltransferase), CHO/CGT lysate (Homo sapiens, UniProt Q16880) (assay: CGT enzyme assay, RapidFire/MS/MS readout (Table 1 ranges with one asterisk *)). Settings: RapidFire method (range with one asterisk *).
T1 construct: Full-length human CGT cDNA was cloned into the BamH1/Xho1 site of pcDNA3.1 (+); expressed in transfected cells; host or cells: Chinese hamster ovary (CHO) cells; lysate prepared with M-PER
T1 sequence (Q16880 21-541): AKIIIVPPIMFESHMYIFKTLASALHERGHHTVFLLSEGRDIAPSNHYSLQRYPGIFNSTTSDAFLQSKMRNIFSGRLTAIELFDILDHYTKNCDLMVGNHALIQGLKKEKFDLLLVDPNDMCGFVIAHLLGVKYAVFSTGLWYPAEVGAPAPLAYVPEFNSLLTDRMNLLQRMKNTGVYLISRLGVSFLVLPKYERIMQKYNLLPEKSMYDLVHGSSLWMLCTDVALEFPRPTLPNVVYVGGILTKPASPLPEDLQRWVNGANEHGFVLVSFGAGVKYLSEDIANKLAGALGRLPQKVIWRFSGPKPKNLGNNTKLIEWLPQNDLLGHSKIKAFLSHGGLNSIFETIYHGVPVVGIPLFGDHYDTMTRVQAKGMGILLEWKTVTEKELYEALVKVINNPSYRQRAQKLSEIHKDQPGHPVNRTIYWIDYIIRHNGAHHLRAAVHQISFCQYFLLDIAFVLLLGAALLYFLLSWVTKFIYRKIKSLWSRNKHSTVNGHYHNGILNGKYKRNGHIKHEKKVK
Type: biochemical
Procedure, shortened: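 IC50s come from variable-slope dose-response fits of internal-standard-normalized C6-NBD-dihydro-galactosylceramide, measured by RapidFire/MS/MS (ESI negative). Reactions: 1 h, 37 °C, human CGT-expressing CHO lysate (4 μg), 0.001–50 μM compound, 10 μM NBD-dihydro-ceramide, 17.5 μM UDP-galactose, 0.5% DMSO, pH 7.2; 0.01% Tween 80 added for ** values.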
NC1CC2CCC(C1)N2C(=O)[C@@H](NS(=O)(=O)c1ccc(OCC2CCCCC2)cc1)C(F)(F)c1ccc(Oc2ccccc2)cc1 (stereo partly drawn) [Compound 84-1, N-((2R)-3-(3-amino-8-azabicyclo[3.2.1]octan-8-yl)-1,1-difluoro-3-oxo-1-(4-phenoxyphenyl)propan-2-yl)-4-(cyclohexylmethoxy)benzenesulfonamide] gave an IC50 of 1 to 10 µM. NC1CC2CCC(C1)N2C(=O)[C@H](NS(=O)(=O)c1ccc(OCC2CCCCC2)cc1)C(F)(F)c1ccc(Oc2ccccc2)cc1 (stereo partly drawn) [Compound 84-2, N-((2S)-3-(3-amino-8-azabicyclo[3.2.1]octan-8-yl)-1,1-difluoro-3-oxo-1-(4-phenoxyphenyl)propan-2-yl)-4-(cyclohexylmethoxy) benzenesulfonamide] gave an IC50 of 10 to 30 µM. Compound CN([C@H](C(=O)N1C2CCC1CC(N)C2)C(F)(F)c1ccc(Oc2ccccc2)cc1)S(=O)(=O)c1ccc(OCC2CCCCC2)cc1 (stereo partly drawn) [Compound 85-1, N-((2R)-3-(3-amino-8-azabicyclo[3.2.1]octan-8-yl)-1,1-difluoro-3-oxo-1-(4-phenoxyphenyl)propan-2-yl)-4-(cyclohexylmethoxy)-N-methylbenzene sulfonamide trifluoroacetate] has an IC50 of 1 to 10 µM. For CN([C@@H](C(=O)N1C2CCC1CC(N)C2)C(F)(F)c1ccc(Oc2ccccc2)cc1)S(=O)(=O)c1ccc(OCC2CCCCC2)cc1 (stereo partly drawn) [Compound 85-2, N-((2S)-3-(3-amino-8-azabicyclo[3.2.1]octan-8-yl)-1,1-difluoro-3-oxo-1-(4-phenoxyphenyl)propan-2-yl)-4-(cyclohexylmethoxy)-N-methylbenzenesulfonamide trifluoroacetate], the IC50 was 10 to 30 µM. NC1CC2CCC(C1)N2C(=O)[C@@H](NS(=O)(=O)c1ccc2cc(OC3CCCC3)ccc2c1)C(F)(F)c1ccc(Oc2ccccc2)cc1 (stereo partly drawn) [Compound 86-1, N-((2R)-3-(3-amino-8-azabicyclo[3.2.1]octan-8-yl)-1,1-difluoro-3-oxo-1-(4-phenoxyphenyl)propan-2-yl)-6-(cyclopentyloxy)naphthalene-2-sulfonamide trifluoroacetate] was tested, and the IC50 was less than 1 µM. NC1CC2CCC(C1)N2C(=O)[C@H](NS(=O)(=O)c1ccc2cc(OC3CCCC3)ccc2c1)C(F)(F)c1ccc(Oc2ccccc2)cc1 (stereo partly drawn) [Compound 86-2, N-((2S)-3-(3-amino-8-azabicyclo[3.2.1]octan-8-yl)-1,1-difluoro-3-oxo-1-(4-phenoxyphenyl)propan-2-yl)-6-(cyclopentyloxy)naphthalene-2-sulfonamide trifluoroacetate] gave an IC50 of 1 to 10 µM. CN([C@H](C(=O)N1C2CCC1CC(N)C2)C(F)(F)c1ccc(Oc2ccccc2)cc1)S(=O)(=O)c1ccc2cc(OC3CCCC3)ccc2c1 (stereo partly drawn) [Compound 87-1, N-((2R)-3-(3-amino-8-azabicyclo[3.2.1]octan-8-yl)-1,1-difluoro-3-oxo-1-(4-phenoxyphenyl)propan-2-yl)-6-(cyclopentyloxy)-N-methylnaphthalene-2-sulfonamide trifluoroacetate] showed an IC50 of less than 1 µM. Compound CN([C@@H](C(=O)N1C2CCC1CC(N)C2)C(F)(F)c1ccc(Oc2ccccc2)cc1)S(=O)(=O)c1ccc2cc(OC3CCCC3)ccc2c1 (stereo partly drawn) [Compound 87-2, N-((2S)-3-(3-amino-8-azabicyclo[3.2.1]octan-8-yl)-1,1-difluoro-3-oxo-1-(4-phenoxyphenyl)propan-2-yl)-6-(cyclopentyloxy)-N-methylnaphthalene-2-sulfonamide trifluoroacetate] has an IC50 of 1 to 10 µM. For NC1CC2CCC(C1)N2C(=O)[C@@H](NS(=O)(=O)c1ccc2c(cnn2CC2CCCC2)c1)C(F)(F)c1ccc(Cl)cc1 (stereo partly drawn) [Compound 88-1, N-((2R)-3-(3-amino-8-azabicyclo[3.2.1]octan-8-yl)-1-(4-chlorophenyl)-1,1-difluoro-3-oxopropan-2-yl)-1-(cyclopentylmethyl)-1H-indazole-5-sulfonamide], the IC50 was 1 to 10 µM. Compound NC1CC2CCC(C1)N2C(=O)[C@H](NS(=O)(=O)c1ccc2c(cnn2CC2CCCC2)c1)C(F)(F)c1ccc(Cl)cc1 (stereo partly drawn) [Compound 88-2, N-((2S)-3-(3-amino-8-azabicyclo[3.2.1]octan-8-yl)-1-(4-chlorophenyl)-1,1-difluoro-3-oxopropan-2-yl)-1-(cyclopentylmethyl)-1H-indazole-5-sulfonamide] has an IC50 of 30 to 100 µM. COc1cc(C(F)(F)[C@H](NS(=O)(=O)c2ccc3cc(OC4CCCC4)ccc3c2)C(=O)N2C3CCC2CC(N)C3)ccc1Br (stereo partly drawn) [Compound 89-1, N-((2R)-3-(3-amino-8-azabicyclo[3.2.1]octan-8-yl)-1-(4-bromo-3-methoxyphenyl)-1,1-difluoro-3-oxopropan-2-yl)-6-(cyclopentyloxy)naphthalene-2-sulfonamide] was tested, and the IC50 was less than 1 µM. For COc1cc(C(F)(F)[C@@H](NS(=O)(=O)c2ccc3cc(OC4CCCC4)ccc3c2)C(=O)N2C3CCC2CC(N)C3)ccc1Br (stereo partly drawn) [Compound 89-2, N-((2S)-3-(3-amino-8-azabicyclo[3.2.1]octan-8-yl)-1-(4-bromo-3-methoxyphenyl)-1,1-difluoro-3-oxopropan-2-yl)-6-(cyclopentyloxy)naphthalene-2-sulfonamide], the IC50 was 1 to 10 µM. Compound CCCCOc1cccc(C(F)(F)[C@H](NS(=O)(=O)c2ccc3cc(OC4CCCC4)ccc3c2)C(=O)N2C3CCC2CC(N)C3)c1 (stereo partly drawn) [Compound 90-1, N-((2R)-3-(3-amino-8-azabicyclo[3.2.1]octan-8-yl)-1-(3-butoxyphenyl)-1,1-difluoro-3-oxopropan-2-yl)-6-(cyclopentyloxy)naphthalene-2-sulfonamide trifluoroacetate] has an IC50 of less than 1 µM. With CCCCOc1cccc(C(F)(F)[C@@H](NS(=O)(=O)c2ccc3cc(OC4CCCC4)ccc3c2)C(=O)N2C3CCC2CC(N)C3)c1 (stereo partly drawn) [Compound 90-2, N-((2S)-3-(3-amino-8-azabicyclo[3.2.1]octan-8-yl)-1-(3-butoxyphenyl)-1,1-difluoro-3-oxopropan-2-yl)-6-(cyclopentyloxy)naphthalene-2-sulfonamide trifluoroacetate] the IC50 was 1 to 10 µM. In the case of NC1CC2CCC(C1)N2C(=O)[C@@H](NS(=O)(=O)c1ccc2c(cnn2CC2CCCC2)c1)C(F)(F)c1ccc(C(F)(F)F)cc1 (stereo partly drawn) [Compound 92-1, N-((2R)-3-(3-amino-8-azabicyclo[3.2.1]octan-8-yl)-1,1-difluoro-3-oxo-1-(4-(trifluoromethyl)phenyl)propan-2-yl)-1-(cyclopentylmethyl)-1H-indazole-5-sulfonamide], the IC50 is reported as less than 1 µM. In the case of NC1CC2CCC(C1)N2C(=O)[C@H](NS(=O)(=O)c1ccc2c(cnn2CC2CCCC2)c1)C(F)(F)c1ccc(C(F)(F)F)cc1 (stereo partly drawn) [Compound 92-2, N-((2S)-3-(3-amino-8-azabicyclo[3.2.1]octan-8-yl)-1,1-difluoro-3-oxo-1-(4-(trifluoromethyl)phenyl)propan-2-yl)-1-(cyclopentylmethyl)-1H-indazole-5-sulfonamide], the IC50 is reported as 10 to 30 µM. With NC1CCN(C(=O)[C@@H](NS(=O)(=O)c2ccc3c(cnn3CC3CCCC3)c2)C(F)(F)c2ccc(C(F)(F)F)cc2)CC1 [Compound 93-1, (R)—N-(3-(4-aminopiperidin-1-yl)-1,1-difluoro-3-oxo-1-(4-(trifluoromethyl)phenyl)propan-2-yl)-1-(cyclopentylmethyl)-1H-indazole-5-sulfonamide] the IC50 was 1 to 10 µM. NC1CCN(C(=O)[C@H](NS(=O)(=O)c2ccc3c(cnn3CC3CCCC3)c2)C(F)(F)c2ccc(C(F)(F)F)cc2)CC1 [Compound 93-2, (S)—N-(3-(4-aminopiperidin-1-yl)-1,1-difluoro-3-oxo-1-(4-(trifluoromethyl)phenyl)propan-2-yl)-1-(cyclopentylmethyl)-1H-indazole-5-sulfonamide] showed an IC50 of 30 to 100 µM. With NC1CC2CCC(C1)N2C(=O)[C@@H](NS(=O)(=O)c1ccc2c(cnn2CC2CCCC2)c1)C(F)(F)c1ccc(-c2ccc(Cl)cc2)cc1 (stereo partly drawn) [Compound 94-1, N-((2R)-3-(3-amino-8-azabicyclo[3.2.1]octan-8-yl)-1-(4′-chloro-[1,1′-biphenyl]-4-yl)-1,1-difluoro-3-oxopropan-2-yl)-1-(cyclopentylmethyl)-1H-indazole-5-sulfonamide] the IC50 was 1 to 10 µM. In the case of NC1CC2CCC(C1)N2C(=O)[C@H](NS(=O)(=O)c1ccc2c(cnn2CC2CCCC2)c1)C(F)(F)c1ccc(-c2ccc(Cl)cc2)cc1 (stereo partly drawn) [Compound 94-2, N-((2S)-3-(3-amino-8-azabicyclo[3.2.1]octan-8-yl)-1-(4′-chloro-[1,1′-biphenyl]-4-yl)-1,1-difluoro-3-oxopropan-2-yl)-1-(cyclopentylmethyl)-1H-indazole-5-sulfonamide], the IC50 is reported as 10 to 30 µM. NC1CCN(C(=O)[C@@H](NS(=O)(=O)c2ccc3c(cnn3CC3CCCC3)c2)C(F)(F)c2ccc(-c3ccc(Cl)cc3)cc2)CC1 [Compound 95-1, (R)—N-(3-(4-aminopiperidin-1-yl)-1-(4′-chloro-[1,1′-biphenyl]-4-yl)-1,1-difluoro-3-oxopropan-2-yl)-1-(cyclopentylmethyl)-1H-indazole-5-sulfonamide] was tested, and the IC50 was less than 1 µM.
